From patent US11708338B2, “Substituted phenyl sulfonyl phenyl triazole thiones and uses thereof” (Neuropore Therapies, Inc., priority 2017, dated 2023) come the findings set out here.

What all share (type): in vivo, mouse
Assay [1] deals with total alpha-synuclein (ASYN). Put plainly: IHC quantification of total alpha-synuclein deposits in brain, 1 month administration study. The following applies: for reduction of total alpha-synuclein level in cortex as compared to vehicle control: L61 ASYN transgenic mice, FIG. 7A. The method, then:
Multiple in vivo administration studies of Compound 1 were carried out in the Line 61 (L61) mThy1-alpha-synuclein transgenic mouse model of Parkinson's disease (PD). The mThy1-alpha-synuclein transgenic mouse model overexpresses wild-type human ASYN under the Thy-1 promoter studies (commonly referred to as Line 61 transgenic mice; Rockenstein et al., 2002). This transgenic mouse develops extensive accumulation of alpha-synuclein (ASYN) in areas relevant to PD (Rockenstein et al., 2002; Chesselet et al., 2012; Games et al., 2013), neurodegeneration including dopaminergic neurodegeneration, reduced dopamine (DA) and TH loss in the striatum (Masliah et al., 2000; Lam et al., 2011), and motor deficits (Fleming et al., 2004). Male transgenic and non-transgenic littermates (3-3.5 mo) were used for all in vivo studies presented here.
Alpha-synuclein (ASYN) is a neuronal protein whose dysregulation has been implicated in the pathogenesis of PD. The effects of Compound 1 on alpha-synuclein aggregation were assessed in both L61 ASYN transgenic and non-transgenic mice in a 1 month administration study. L61 ASYN transgenic mice (36 total mice, n=8-11 mice per treatment group) were injected (i.p.) with 1, 5, or 10 mg/kg of Compound 1 or a vehicle control (5% DMSO+20% Cremphor EL+0.9% normal saline) per day for 1 month. Non-transgenic mice (18 total mice, n=8-11 mice per treatment group) were used as a control and were injected daily (i.p.) with 10 mg/kg of Compound 1 or a vehicle control (5% DMSO+20% Cremphor EL+0.9% normal saline) per day for 1 month. At the end of one month, the mice were sacrificed, and immunohistochemical (IHC) detection of total alpha-synuclein deposits, insoluble alpha-synuclein deposits (PK+resistant), microtubule-associated protein 1A/1B-light chain 3 (LC3), and monomeric alpha-synuclein levels were assessed in the harvested brain tissues.
The quantification and IHC staining of total alpha-synuclein were performed using known techniques (Rockenstein et al., J Neurosci Res. 2002, 68(5):568-78; Tanji et al., Acta Neuropathol. 2010, 120, 145-154; Nuber et al., Brain. 2013, February; 136(Pt 2):412-32).

Assay [2] deals with insoluble alpha-synuclein deposits (PK+resistant). Description: IHC quantification of insoluble (PK+resistant) alpha-synuclein deposits in brain, 1 month administration study. The following applies: L61 ASYN transgenic mice, FIG. 9A. The procedure:
(§1) Multiple in vivo administration studies of Compound 1 were carried out in the Line 61 (L61) mThy1-alpha-synuclein transgenic mouse model of Parkinson's disease (PD). The mThy1-alpha-synuclein transgenic mouse model overexpresses wild-type human ASYN under the Thy-1 promoter studies (commonly referred to as Line 61 transgenic mice; Rockenstein et al., 2002). […]
(§2) Alpha-synuclein (ASYN) is a neuronal protein whose dysregulation has been implicated in the pathogenesis of PD. The effects of Compound 1 on alpha-synuclein aggregation were assessed in both L61 ASYN transgenic and non-transgenic mice in a 1 month administration study. […] At the end of one month, the mice were sacrificed, and immunohistochemical (IHC) detection of total alpha-synuclein deposits, insoluble alpha-synuclein deposits (PK+resistant), microtubule-associated protein 1A/1B-light chain 3 (LC3), and monomeric alpha-synuclein levels were assessed in the harvested brain tissues.
The quantification and IHC staining of PK-resistant alpha-synuclein were performed using known techniques (Rockenstein et al., J Neurosci Res. 2002, 68(5):568-78; Tanji et al., Acta Neuropathol. 2010, 120, 145-154; Nuber et al., Brain. 2013, February; 136(Pt 2):412-32).

The test system of another assay is monomeric ASYN. Description: ProteinSimple western biochemical evaluation of monomeric ASYN in cytosolic fraction of brain homogenates. The following applies: L61 ASYN transgenic mice, 1, 5 or 10 mg/kg per day i.p., 1 month. The procedure:
as §1, §2
Biochemical evaluations were conducted using a ProteinSimple© western biochemical evaluation. Briefly, samples were mixed with pre-calculated volumes of 0.1×Sample Buffer and 5×Fluorescent Master Mix to make a final sample concentration of 0.4 mg/mL in 10 μL solution for signal optimization and evaporation reduction. […]

For assay [3], the system named is glial fibrillary acidic protein (GFAP). Description: GFAP IHC staining in sections containing hippocampus, 1 month administration study. The following applies: L61 ASYN transgenic mice. The method, then:
Neuroinflammation is also associated with increased expression of glial fibrillary acidic protein (GFAP) in activated astrocytes, which is induced by a variety of molecules including pro-inflammatory mediators released from activated microglia (Saijo et al. 2009). Increased expression of glial fibrillary acidic protein (GFAP) represents astroglial activation and gliosis during neurodegeneration. (Brahmachari et al., 2006). The effects of Compound 1 on GFAP expression were assessed in both L61 ASYN transgenic and non-transgenic mice in a 1 month administration study. After 30 days, the mice were sacrificed, and IHC detection of GFAP was assessed in the harvested brain tissues.
The harvested brain tissues from treated mice were fixed (drop fixed in 4% PFA) and then sectioned into 40 micro thick sections using a vibratome. The representative sections containing the hippocampus were assessed for GFAP with standard immunohistochemistry staining. The general methods used for GFAP immunostaining follow those described in Rockenstein et al., J Neurosci Res. 2002, 68(5):568-78.

The mark [4] stands for this setting: L61 ASYN transgenic mice, 1, 5 or 10 mg/kg per day i.p.

Turning to `O=S(=O)(c1ccc(-n2cn[nH]c2=S)cc1)c1ccc(Cl)c(C(F)(F)F)c1` [Compound 1, 4-(4-((4-chloro-3-(trifluoromethyl)phenyl)sulfonyl)phenyl)-2,4-dihydro-3H-1,2,4-triazole-3-thione], the “reduction of total alpha-synuclein level in cortex as compared to vehicle control” value (from here on “reduction of total alpha-synuclein level”) in assay [1] (1 mg/kg per day i.p.) is listed as 13%. The “reduction of total alpha-synuclein level” value in assay [1] (5 mg/kg per day i.p.) is on record as 32%. Moreover, the “reduction of total alpha-synuclein level” value in assay [1] (10 mg/kg per day i.p.) was 38%. Besides, in assay [1] (setting [4]), the “total ASYN in the neuropil of cortex vs vehicle control” value is reported as “reduced”, the “total ASYN in the neuropil of hippocampus vs vehicle control” value is “reduced” and the “total ASYN in the neuropil of striatum vs vehicle control” value was “reduced”. For the same compound, the “reduction of PK-resistant alpha synuclein levels in cortex as compared to vehicle-treated mice” value in assay [2] (5 mg/kg daily i.p.) worked out at 37%. Besides, the “reduction of PK-resistant alpha synuclein levels in cortex as compared to vehicle-treated mice” value in assay [2] (10 mg/kg daily i.p.) is recorded as 36%. For the same compound, in the assay with monomeric ASYN, the “cortical levels of monomeric ASYN in cytosolic fraction of brain homogenates” value is listed as “reduced” and the “hippocampal levels of monomeric ASYN in cytosolic fraction of brain homogenates” value is given as “reduced”. The “GFAP levels, IHC staining intensity in representative images (FIG. 16)” value in assay [3] (5 mg/kg or 10 mg/kg daily i.p.) is recorded as “reducing cortical levels of GFAP”. Further, the “GFAP levels, quantification (FIG. 17)” value in assay [3] (10 mg/kg dose i.p. daily) is given as “reduces the cortical GFAP levels in a statistically significant manner”.
